The nature of the data set: mn = molality of the nth substance listed, in mol/kg. To be noted: 298.15 K, 101 kPa, Liquid.

Each structure is given as a SMILES string. ± gives the expanded uncertainty stated by the source.

Consider `NCC(=O)O` [2-aminoacetic acid] + O, for which the viscosity by setting is: (m1 = 0.4991) 0.956 ± 0.036 mPa·s; (m1 = 1.999) 1.189 ± 0.043 mPa·s; (m1 = 3) 1.374 ± 0.049 mPa·s.

For `C[C@H](N)C(=O)O` [(S)-2-aminopropanoic acid] + O, the viscosity (m1 = 0.1003) amounted to 0.918 ± 0.034 mPa·s, the viscosity (m1 = 0.4995) is on record as 1.017 ± 0.038 mPa·s, the viscosity (m1 = 0.7497) was 1.079 ± 0.04 mPa·s and the viscosity (m1 = 1) is 1.152 ± 0.042 mPa·s.

The term viscosity denotes the internal friction of a fluid under shear.

For the origin of these results see the NIST ThermoML archive (doi:10.1021/je050048y).
